These results are taken from patent EP4782453A1 (Beyang Therapeutics Co., Ltd., priority 2023, dated 2025).

One test deals with T1, Menin-MLL (Homo sapiens, UniProt O00255).
T1 construct: His-Menin (M1-L615 end); purchased BIORTUS BP9210
T1 sequence (O00255 1-615 isoform O00255-1): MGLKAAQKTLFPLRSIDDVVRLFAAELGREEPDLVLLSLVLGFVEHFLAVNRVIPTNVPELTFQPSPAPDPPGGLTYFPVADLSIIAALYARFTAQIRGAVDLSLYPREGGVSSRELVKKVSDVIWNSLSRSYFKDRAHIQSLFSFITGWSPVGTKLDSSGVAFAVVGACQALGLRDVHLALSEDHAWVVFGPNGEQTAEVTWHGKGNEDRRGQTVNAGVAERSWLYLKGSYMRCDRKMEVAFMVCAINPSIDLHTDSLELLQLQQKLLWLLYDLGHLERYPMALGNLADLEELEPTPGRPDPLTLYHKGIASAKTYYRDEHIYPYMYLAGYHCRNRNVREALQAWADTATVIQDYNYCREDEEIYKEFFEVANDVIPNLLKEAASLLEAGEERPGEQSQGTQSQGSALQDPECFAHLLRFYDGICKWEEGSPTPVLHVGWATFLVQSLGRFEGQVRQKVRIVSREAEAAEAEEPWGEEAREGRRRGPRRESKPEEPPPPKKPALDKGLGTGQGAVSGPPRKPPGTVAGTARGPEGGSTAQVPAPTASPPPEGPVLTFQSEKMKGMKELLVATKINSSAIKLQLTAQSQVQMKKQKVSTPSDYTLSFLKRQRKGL
Put plainly: Inhibitory activity against Menin-MLL binding (fluorescence polarization). As to conditions: Menin-MLL IC50, fluorescence polarization; 150 nM His-Menin, 15 nM FITC-MLL; 25°C for 60 min. As to the method: • His-Menin (M1-L615 end), purchased from BIORTUS, Catalog Number: BP9210; and • FITC-MLL4-43, purchased from GenScript, Catalog Number: C491HFF190-3/PE1324.
In a 10 µL reaction solution (20 mM HEPES, pH 7.5, 50 mM NaCl, 1 mM DTT, 0.01% BSA) containing any compound from the examples, 150 nM His-Menin was added to a 384-well plate (Corning, Model: 4514). Each concentration was set up in duplicate wells. After centrifugation at 1000 RPM for 1 min, the plate was incubated at 25°C for 15 min. Then, 15 nM […] (20 mM HEPES, pH 7.5, 50 mM NaCl, 1 mM DTT, 0.01% BSA) was added to a 384-well plate. After centrifugation at 1000 RPM for 1 min, the reaction proceeded at 25°C for 60 min. Changes in fluorescence polarization were measured using a plate reader (PerkinElmer, Envision 2104). Based on the measured signals, the binding inhibition rate of the compound at each concentration was calculated, and the IC50 (half-maximal inhibitory concentration) of the compound was determined using statistical analysis software GraphPad Prism (GraphPad Software, Inc.) by means of a nonlinear fitting formula: 4-Parameter Logistic Model or Sigmoidal Dose-Response Model: Y = Bottom + (Top−Bottom)/(1 + 10^((LogIC50−X) × Hill Slope)), [formula] in which X indicates the logarithm of compound concentration, Y indicates a fluorescence polarization mP value, and Top and Bottom indicate the maximum and minimum readouts of fluorescence polarization mP values. Table 1: Inhibitory Activity of Compounds Against Menin-MLL Binding
Background: In fluorescence polarisation assays a small probe gives low polarisation when free and higher when bound to something large.
The IC50 is the concentration at which inhibition is half-maximal. The molecule `CCN(C(=O)c1cc(F)ccc1-c1cc(N2CCN(C(=O)C3NC4CCC3CC4)CC2)cn2c(C=O)ncc12)C(C)C` [Example 76, N-ethyl-5-fluoro-2-(3-formyl-6-{4-[(1R,3S,4S)-2-azabicyclo[2.2.2]octan-3-carbonyl]piperazin-1-yl}imidazo[1,5-a]pyridin-8-yl)-N-(isopropyl)benzamide] yielded an IC50 of 40 nM. `CCC(=O)N(c1cc(F)ccc1-c1cc(N2CCN(C(=O)C3NC4CCC3CC4)CC2)cn2c(C)ncc12)C(C)C` [Example 77, N-[5-fluoro-2-(3-methyl-6-{4-[(1R,3S,4S)-2-azabicyclo[2.2.2]octan-3-carbonyl]piperazin-1-yl}imidazo[1,5-a]pyridin-8-yl)phenyl]-N-(isopropyl)propionamide] gave an IC50 of 100 nM. `CCN(C(=O)c1cc(F)ccc1-c1cc(N2CCN(C(=O)[C@@H]3CCCCN3)CC2)cn2c(C)ncc12)C(C)C` [Example 81] registered an IC50 of 188 nM. As for `CCN(C(=O)c1cc(F)ccc1-c1cc(N2CCN(C(=O)[C@H]3N[C@@H]4CC[C@H]3C4)CC2)cn2c(C)ncc12)C(C)C` [Example 88], the IC50 was found to be 52 nM. On the same count and under the same terms, then `CCN(C(=O)c1cc(F)ccc1-c1cc(N2CC3(CN(C[C@H]4CC[C@H](NS(=O)(=O)CC)CC4)C3)C2)cn2c(C)ncc12)C(C)C` [Example 89, N-ethyl-5-fluoro-2-[3-methyl-6-(6-{[(1r,4r)-4-ethanesulfonamidocyclohexyl]methyl}-2,6-diazaspirocyclo[3.3]heptan-2-yl)imidazo[1,5-a]pyridin-8-yl]-N-(isopropyl)benzamide], with 173 nM. As to `CCN(C(=O)c1cc(F)ccc1-c1cc(N2CCN(C(=O)C3NC4CCC3CC4)CC2)cn2c(C)nc(Cl)c12)C(C)C` [Example 93, 2-(1-chloro-3-methyl-6-{4-[(1R,3S,4S)-2-azabicyclo[2.2.2]octan-3-carbonyl]piperazin-1-yl}imidazo[1,5-a]pyridin-8-yl)-N-ethyl-5-fluoro-N-(isopropyl)benzamide], the IC50 is 21 nM. In the case of `Cc1ncc2c(-c3ccc(F)cc3C(=O)N(CC(F)F)C(C)C)cc(N3CCN(C(=O)C4NC5CCC4CC5)CC3)cn12` [Example 94, N-(2,2-difluoroethyl)-5-fluoro-2-(3-methyl-6-{4-[(1R,3S,4S)-2-azabicyclo[2.2.2]octan-3-carbonyl]piperazin-1-yl}imidazo[1,5-a]pyridin-8-yl)-N-(isopropyl)benzamide], the IC50 stood at 44.5 nM. Regarding `CCN(C(=O)c1cc(F)ccc1-c1cc(C2CCN(C(=O)[C@@H]3CCCCN3)C2)cn2c(C)ncc12)C(C)C` (stereo partly drawn) [Example 97], the IC50 is 210 nM. Regarding `CCN(C(=O)c1cc(F)ccc1-c1cc(C2CN(C(=O)C3NC4CCC3CC4)C2)cn2c(C)nc(F)c12)C(C)C` [Example 107, N-ethyl-5-fluoro-2-(1-fluoro-3-methyl-6-{1-[(1R,3S,4S)-2-azabicyclo[2.2.2]octan-3-carbonyl]azacyclobutan-3-yl}imidazo[1,5-a]pyridin-8-yl)-N-(isopropyl)benzamide], the IC50 is 4.5 nM.

Molecule `CCN(C(=O)c1cc(F)ccc1-c1cc(C2CN(C(=O)C3NC4CCC3CC4)C2)cn2c(C)nc(Cl)c12)C(C)C` [Example 108, 2-(1-chloro-3-methyl-6-{1-[(1R,3S,4S)-2-azabicyclo[2.2.2]octan-3-carbonyl]azacyclobutan-3-yl}imidazo[1,5-a]pyridin-8-yl)-N-ethyl-5-fluoro-N-(isopropyl)benzamide] yielded an IC50 of 7.2 nM. In the case of `CCN(C(=O)c1cc(F)ccc1-c1cc(C2=CCN(C(=O)C3NC4CCC3CC4)CC2)n2ccncc12)C(C)C` [Example 110, N-ethyl-5-fluoro-N-(isopropyl)-2-(6-{1-[(1R,3S,4S)-2-azabicyclo[2.2.2]octan-3-carbonyl]-1,2,3,6-tetrahydropyridin-4-yl}pyrrolo[1,2-a]pyrazin-8-yl)benzamide], the IC50 stood at 25 nM. Take `CCN(C(=O)c1cc(F)ccc1-c1cc(N2CCN(C(=O)[C@@H]3CCC(C)(C)N3)CC2)cn2c(C)nc(Cl)c12)C(C)C` [Example 111]: the IC50 is 38 nM. `CCN(C(=O)c1cc(F)ccc1-c1cc(C2=CCN(C(=O)C3NC4CCC3CC4)CC2)c2ccncn12)C(C)C` [Example 113, N-ethyl-5-fluoro-N-(isopropyl)-2-(5-{1-[(1R,3S,4S)-2-azabicyclo[2.2.2]octan-3-carbonyl]-1,2,3,6-tetrahydropyridin-4-yl}pyrrolo[1,2-c]pyrimidin-7-yl)benzamide]: the IC50 is 201 nM.

Still in this test, the particulars now being: fluorescence polarization; 150 nM His-Menin, 15 nM FITC-MLL; 25°C for 60 min; read-out: Menin-MLL IC50.
In the case of `CCN(C(=O)c1cc(F)ccc1-c1cc(C2(O)CN(C[C@H]3CC[C@H](NC(=O)OC(C)(C)C)CC3)C2)cc2c1cnn2C)C(C)C` [Example 79, N-[(1r,4r)-4-{[3-(4-{2-[ethyl(isopropyl)aminoformyl]-4-fluorophenyl}-1-methyl-1H-indazol-6-yl)-3-hydroxylazacyclobutan-1-yl]methyl}cyclohexyl]tert-butyl carbamate], the IC50 was 279 nM.

For `CCN(C(=O)c1cc(F)ccc1-c1cc(C2CCN(CC3CCC(NS(=O)(=O)CC)CC3)C2)cn2c(C)nnc12)C(C)C` (stereo not drawn) [Example 80, 2-(6-{1-[(4-ethanesulfonamidocyclohexyl)methyl]pyrrolidin-3-yl}-3-methyl-[1,2,4]triazolo[4,3-a]pyridin-8-yl)-N-ethyl-5-fluoro-N-(isopropyl)benzamide], the IC50 is 122 nM. For the molecule `CCN(C(=O)c1cc(F)ccc1-c1cc(N2CCN(C[C@H]3CC[C@H](NS(=O)(=O)CC)CC3)CC2)cn2c(C)ncc12)C(C)C` [Example 84], the IC50 was found to be 165 nM.

Take `COc1cc(-c2ccc(CCN3CCN(c4cc(-c5ccc(F)cc5C(=O)N5CCOC[C@H]5C)c5cnc(C)n5c4)CC3)cc2)nnc1OC` [Example 86]: the 50% inhibitory concentration (IC50) was found to be 152 nM.

For the molecule `CCN(C(=O)c1cc(F)ccc1-c1cc(N2CCN(C(=O)[C@@H]3CCCN3)CC2)cn2c(C)ncc12)C(C)C` [Example 92], the IC50 turned out to be 46.5 nM. Regarding `CCS(=O)(=O)NC1CCC(CN2CCC(c3cc(-c4ccc(F)cc4C(=O)N4CCC(F)(F)CC4C)c4cnn(C)c4c3)C2)CC1` (stereo not drawn) [Example 101, N-{4-[(3-{4-[2-(4,4-difluoro-2-methylpiperidin-1-carbonyl)-4-fluorophenyl]-1-methyl-1H-indazol-6-yl}pyrrolidin-1-yl)methyl]cyclohexyl}ethan-1-sulfonamide], the IC50 was 45.5 nM. `CCN(C(=O)c1cc(F)ccc1-c1cc(C2CCN(C[C@H]3C[C@H](NS(=O)(=O)CC)C3)C2)cn2c(C)ncc12)C(C)C` (stereo partly drawn) [Example 102]: the IC50 is 70.5 nM.

Turning to `CCN(C(=O)c1cc(F)ccc1-c1cc(C2CCN(C[C@H]3C[C@@H](NS(=O)(=O)CC)C3)C2)cn2c(C)ncc12)C(C)C` (stereo partly drawn) [Example 103], the IC50 turned out to be 70.5 nM.

`CCN(C(=O)c1cc(F)ccc1-c1cc(N2CCN(C(=O)[C@H]3CCCN3)CC2)cn2c(C)ncc12)C(C)C` [Example 106]: the IC50 was found to be 153 nM.

Consider `CCN(C(=O)c1cc(F)ccc1-c1cc(N2CCN(C(=O)[C@@H]3C[C@H](OC)CN3)CC2)cn2c(C)nc(Cl)c12)C(C)C` [Example 109], for which the IC50 stood at 96 nM. On to `CCN(C(=O)c1cc(F)ccc1-c1cc(N2CCN(C(=O)[C@@H]3CC4CCCCC4N3)CC2)cn2c(C)nc(Cl)c12)C(C)C` (stereo partly drawn) [Example 112], for which the IC50 came to 24 nM. Consider `CCN(C(=O)c1cc(F)ccc1-c1cc(N2CCN(C(=O)[C@@H]3CCCN3)CC2)cn2c(C)nc(Cl)c12)C(C)C` [Example 114], for which the IC50 stood at 19 nM.

In the case of `CCN(C(=O)c1cc(F)ccc1-c1cc(N2CCN(C(=O)[C@@H]3CCCN3)CC2)c(Cl)n2c(C)ncc12)C(C)C` [Example 115, 2-(5-chloro-3-methyl-6-{4-[(2S)-pyrrolidin-2-carbonyl]piperazin-1-yl}imidazo[1,5-a]pyridin-8-yl)-N-ethyl-5-fluoro-N-(isopropyl)benzamide], the IC50 amounted to 152 nM.

For `CCN(C(=O)c1cc(F)ccc1-c1cc(N2CCN(C(=O)[C@@H]3Cc4ccccc4CN3)CC2)cn2c(C)nc(Cl)c12)C(C)C` [Example 116], the IC50 stood at 52 nM.
